Data published in PubChem BioAssay AID743501 (Broad Institute, 2014).
Active and inactive are the calls of the source.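 The calls were made as follows: active = half-inhibitory concentration IC50 below 35 µM against dopamine receptor luciferase signal; inactive = the rest.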

What follows are compounds tested on HEK293 dopamine receptor CRE-luciferase, antagonist mode (assay: inhibition of dopamine-stimulated CRE-luciferase signal, dose response, counter-screen for LGR2 project, cell-based, HEK293, luminescence, dry powder (AID 743501)).
In the case of C[C@@H]1CCCCO[C@H](CN(C)C(=O)Nc2ccc(F)cc2)[C@H](C)CN([C@@H](C)CO)C(=O)c2cc(NC(=O)C3CCCCC3)ccc2O1, the IC50 is reported as > 35 µM (inactive). C[C@H](CO)N1C[C@H](C)[C@H](CN(C)C(=O)Nc2ccc3c(c2)OCO3)OCCCC[C@H](C)Oc2ccc(NC(=O)C3CCCCC3)cc2C1=O showed an IC50 of less than 35 µM. Work on C[C@H](CO)N1C[C@H](C)[C@H](CN(C)C(=O)Nc2ccc(F)cc2)OCCCC[C@H](C)Oc2ccc(NC(=O)C3CCCCC3)cc2C1=O yielded an IC50 of less than 35 µM. COc1ccc(NC(=O)N(C)C[C@@H]2OCCCC[C@H](C)Oc3ccc(NC(=O)C4CCCCC4)cc3C(=O)N([C@H](C)CO)C[C@@H]2C)cc1 was tested, and the IC50 was > 35 µM (inactive). C[C@H](CO)N1C[C@H](C)[C@H](CN(C)C(=O)Nc2ccccc2)OCCCC[C@H](C)Oc2ccc(NC(=O)C3CCCCC3)cc2C1=O gave an IC50 of less than 35 µM.
